Reference: article doi:[…]/2025.11.12.688093v2 (biorxiv, 2026)

Columns and labels:
Type in all cases: biochemical
CDK4/CycD1 = CDK4/CycD1 (Homo sapiens, UniProt P11802); assay: kinase panel, HTRF or ADP-Glo, single dose; conditions: read-out: % inhibition at 1 μM
[1] = molecular target: recombinant CK2 (casein kinase 2) (Homo sapiens, UniProt P68400); assay: Kinase-Glo residual ATP luminescence
CDK1/CycA2 = CDK1/CycA2 (Homo sapiens, UniProt P06493); assay: kinase panel, HTRF or ADP-Glo, single dose; conditions: read-out: % inhibition at 10 μM
CDK1/CycA2, sequence (P20248 whole entry): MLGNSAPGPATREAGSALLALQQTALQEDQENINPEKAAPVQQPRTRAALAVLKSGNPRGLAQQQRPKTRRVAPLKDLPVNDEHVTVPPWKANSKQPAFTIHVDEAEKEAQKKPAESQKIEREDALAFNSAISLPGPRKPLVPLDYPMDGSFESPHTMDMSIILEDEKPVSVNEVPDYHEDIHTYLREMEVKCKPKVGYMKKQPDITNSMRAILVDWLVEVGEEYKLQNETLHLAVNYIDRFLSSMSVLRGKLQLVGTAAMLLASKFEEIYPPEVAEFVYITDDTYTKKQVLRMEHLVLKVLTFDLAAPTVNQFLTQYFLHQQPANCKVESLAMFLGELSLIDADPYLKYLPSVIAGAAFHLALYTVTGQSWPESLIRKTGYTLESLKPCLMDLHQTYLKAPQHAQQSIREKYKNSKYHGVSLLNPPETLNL
CDK1/CycA2, sequence (P06493 whole entry): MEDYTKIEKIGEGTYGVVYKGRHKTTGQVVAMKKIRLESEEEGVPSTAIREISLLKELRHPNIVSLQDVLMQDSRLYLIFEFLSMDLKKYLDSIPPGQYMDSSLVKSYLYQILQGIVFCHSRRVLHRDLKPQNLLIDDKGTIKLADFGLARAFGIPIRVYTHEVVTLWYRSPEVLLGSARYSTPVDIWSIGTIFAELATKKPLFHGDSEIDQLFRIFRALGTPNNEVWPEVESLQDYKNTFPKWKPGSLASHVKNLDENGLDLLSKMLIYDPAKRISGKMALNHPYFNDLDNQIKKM

CDK2/CycE1 = CDK2/CycE1 (Homo sapiens, UniProt P24941); assay: kinase panel, HTRF or ADP-Glo, single dose; conditions: read-out: % inhibition at 10 μM
CDK9/CycT1 = CDK9/CycT1 (Homo sapiens, UniProt P50750); assay: kinase panel, HTRF or ADP-Glo, single dose; conditions: read-out: % inhibition at 10 μM
CDK9/CycT1, sequence (P50750 whole entry): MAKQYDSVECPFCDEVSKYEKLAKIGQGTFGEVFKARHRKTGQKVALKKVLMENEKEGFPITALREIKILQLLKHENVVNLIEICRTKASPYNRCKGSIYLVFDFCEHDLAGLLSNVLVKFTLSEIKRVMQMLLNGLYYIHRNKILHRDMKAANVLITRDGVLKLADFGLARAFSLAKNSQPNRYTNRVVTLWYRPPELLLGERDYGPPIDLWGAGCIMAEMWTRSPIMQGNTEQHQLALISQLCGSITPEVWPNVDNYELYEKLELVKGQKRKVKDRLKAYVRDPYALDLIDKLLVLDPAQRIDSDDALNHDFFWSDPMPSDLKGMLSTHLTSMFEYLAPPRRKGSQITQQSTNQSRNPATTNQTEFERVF
CDK9/CycT1, sequence (O60563 whole entry partner): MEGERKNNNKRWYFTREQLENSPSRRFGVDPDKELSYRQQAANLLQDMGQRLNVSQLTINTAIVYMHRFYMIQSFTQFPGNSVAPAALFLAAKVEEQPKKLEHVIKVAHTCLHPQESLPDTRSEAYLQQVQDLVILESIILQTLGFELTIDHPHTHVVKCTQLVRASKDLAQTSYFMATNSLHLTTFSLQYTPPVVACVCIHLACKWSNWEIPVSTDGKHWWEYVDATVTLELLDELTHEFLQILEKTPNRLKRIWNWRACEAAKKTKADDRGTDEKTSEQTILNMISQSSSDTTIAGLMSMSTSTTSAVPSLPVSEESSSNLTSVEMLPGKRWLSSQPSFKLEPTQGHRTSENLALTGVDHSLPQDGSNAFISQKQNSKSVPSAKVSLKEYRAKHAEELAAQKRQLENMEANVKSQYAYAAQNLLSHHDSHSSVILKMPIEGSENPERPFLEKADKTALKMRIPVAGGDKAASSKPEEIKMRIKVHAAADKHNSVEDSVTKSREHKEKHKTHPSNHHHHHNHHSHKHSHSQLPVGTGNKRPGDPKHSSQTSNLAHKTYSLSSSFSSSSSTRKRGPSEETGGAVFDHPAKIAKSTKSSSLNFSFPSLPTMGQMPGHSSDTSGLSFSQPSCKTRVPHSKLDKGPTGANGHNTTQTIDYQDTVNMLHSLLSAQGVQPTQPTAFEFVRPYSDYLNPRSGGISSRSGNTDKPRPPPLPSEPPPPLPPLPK

CDK3/CycE1 = CDK3/CycE1 (Homo sapiens, UniProt Q00526); assay: kinase panel, HTRF or ADP-Glo, single dose; conditions: read-out: % inhibition at 10 μM
CDK3/CycE1, sequence (Q00526 whole entry): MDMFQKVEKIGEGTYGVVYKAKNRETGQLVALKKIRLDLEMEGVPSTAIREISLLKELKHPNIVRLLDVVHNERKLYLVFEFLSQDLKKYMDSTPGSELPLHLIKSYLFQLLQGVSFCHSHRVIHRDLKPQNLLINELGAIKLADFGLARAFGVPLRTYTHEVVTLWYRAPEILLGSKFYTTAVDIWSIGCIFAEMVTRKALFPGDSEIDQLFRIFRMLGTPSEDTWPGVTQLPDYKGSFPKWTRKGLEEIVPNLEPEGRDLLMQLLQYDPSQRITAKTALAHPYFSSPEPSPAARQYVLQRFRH
CDK3/CycE1, sequence (P24864 whole entry, further chain): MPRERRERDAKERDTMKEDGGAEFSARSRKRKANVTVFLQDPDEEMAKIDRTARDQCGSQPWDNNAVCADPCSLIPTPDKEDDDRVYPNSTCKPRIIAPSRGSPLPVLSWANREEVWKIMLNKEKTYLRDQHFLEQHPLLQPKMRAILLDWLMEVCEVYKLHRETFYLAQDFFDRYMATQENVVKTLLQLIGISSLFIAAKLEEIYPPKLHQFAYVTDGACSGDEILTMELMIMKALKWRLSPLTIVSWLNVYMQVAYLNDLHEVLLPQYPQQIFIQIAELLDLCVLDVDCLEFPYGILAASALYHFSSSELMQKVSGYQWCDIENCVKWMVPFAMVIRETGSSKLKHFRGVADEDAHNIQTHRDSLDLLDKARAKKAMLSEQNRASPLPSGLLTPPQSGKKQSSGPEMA

recombinant CK2 (casein kinase 2), sequence (P68400 whole entry): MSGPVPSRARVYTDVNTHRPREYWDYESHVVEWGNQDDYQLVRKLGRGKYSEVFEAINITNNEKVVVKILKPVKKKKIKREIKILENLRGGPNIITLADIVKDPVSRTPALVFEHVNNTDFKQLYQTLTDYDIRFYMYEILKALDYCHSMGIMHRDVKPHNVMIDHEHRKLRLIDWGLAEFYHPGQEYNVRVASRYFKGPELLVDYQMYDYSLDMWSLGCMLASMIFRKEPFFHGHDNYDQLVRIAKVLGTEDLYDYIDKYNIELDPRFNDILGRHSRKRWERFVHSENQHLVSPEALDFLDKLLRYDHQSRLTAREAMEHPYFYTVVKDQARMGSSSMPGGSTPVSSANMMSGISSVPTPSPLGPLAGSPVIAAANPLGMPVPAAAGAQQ
recombinant CK2 (casein kinase 2), sequence (P67870 2-215 partner): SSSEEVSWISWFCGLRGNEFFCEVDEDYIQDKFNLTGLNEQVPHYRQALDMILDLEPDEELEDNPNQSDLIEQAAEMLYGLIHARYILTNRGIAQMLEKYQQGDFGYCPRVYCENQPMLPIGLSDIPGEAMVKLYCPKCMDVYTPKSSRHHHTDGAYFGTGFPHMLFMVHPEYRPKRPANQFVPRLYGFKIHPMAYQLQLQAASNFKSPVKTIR
CDK4/CycD1, sequence (P11802 2-303): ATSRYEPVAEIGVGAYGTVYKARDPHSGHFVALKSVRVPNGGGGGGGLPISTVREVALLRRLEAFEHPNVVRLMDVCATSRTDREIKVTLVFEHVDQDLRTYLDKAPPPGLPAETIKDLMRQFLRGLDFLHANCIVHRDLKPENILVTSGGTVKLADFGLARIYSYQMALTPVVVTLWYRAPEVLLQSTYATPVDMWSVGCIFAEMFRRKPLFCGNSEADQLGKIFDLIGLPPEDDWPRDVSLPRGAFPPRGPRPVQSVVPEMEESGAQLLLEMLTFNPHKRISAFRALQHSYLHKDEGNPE
CDK4/CycD1, sequence (P24385 whole entry partner): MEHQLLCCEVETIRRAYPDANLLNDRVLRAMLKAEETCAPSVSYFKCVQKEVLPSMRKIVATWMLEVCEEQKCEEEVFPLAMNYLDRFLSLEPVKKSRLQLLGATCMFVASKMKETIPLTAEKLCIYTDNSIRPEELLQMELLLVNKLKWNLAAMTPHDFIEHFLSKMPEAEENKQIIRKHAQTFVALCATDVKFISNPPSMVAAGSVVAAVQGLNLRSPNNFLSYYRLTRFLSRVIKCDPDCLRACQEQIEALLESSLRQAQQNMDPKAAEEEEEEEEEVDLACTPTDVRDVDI

Row | SMILES | inhibition at 1 µM (CDK4/CycD1) [%] | IC50 [1] [nM] | inhibition at 10 µM (CDK1/CycA2) [%] | inhibition at 10 µM (CDK2/CycE1) [%] | inhibition at 10 µM (CDK9/CycT1) [%] | inhibition at 10 µM (CDK3/CycE1) [%]
1 | N=C1NC(=O)/C(=C/c2ccc(O)c([N+](=O)[O-])c2)S1 [compound 2, Compound 2] | 10.2 | 156 | – | – | – | –
2 | Cc1cccc(NCN2C(=O)S/C(=C\c3ccccc3)C2=O)c1 [compound 3, Compound 3] | – | 199 | 14.7 | 12.4 | 36.1 | 15.3
